From the supplement of paper PMC10307832

Columns and labels:
Assay in all cases: relative viability (nuclei count vs DMSO), 5 days (fraction); higher = more cells survive
[1] = compound: C1=CC2=C(C=C(C(=C2N=C1)O)N=NC3=CC4=C(C=C3)C=C(C=C4)S(=O)(=O)O)S(=O)(=O)O + Cc1cc(Nc2cc(N3CCN(C)CC3)nc(Sc3ccc(NC(=O)C4CC4)cc3)n2)n[nH]1 [Tozasertib] (partner 0.1 µM)
In short: (§1)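 Five library-drug doses in √10 steps were combined with a fixed anchor-drug dose, or a single drug was given alone, by pin tool to lung cancer cell lines in 1536-well plates the day after seeding. Nuclei were stained and counted after 5 days. Relative viability is the nuclei count in treated wells over that in vehicle wells, taken as the median of duplicate plates.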

[2] = compound: O=C(NC1CCNCC1)c1n[nH]cc1NC(=O)c1c(Cl)cccc1Cl [AT-7519] + CS(=O)(=O)CCNCc1ccc(-c2ccc3ncnc(Nc4ccc(OCc5cccc(F)c5)c(Cl)c4)c3c2)o1 [Lapatinib] (partner 2 µM)
In short: as §1

[3] = compound: O=C(NC1CCNCC1)c1n[nH]cc1NC(=O)c1c(Cl)cccc1Cl [AT-7519] + CC(C)C[C@H](NC(=O)[C@H](Cc1ccccc1)NC(=O)c1cnccn1)B(O)O [Bortezomib] (partner 0.002 µM)
In short: as §1

[4] = compound: C1=CC2=C(C=C(C(=C2N=C1)O)N=NC3=CC4=C(C=C3)C=C(C=C4)S(=O)(=O)O)S(=O)(=O)O + N=C(N)NC(=N)NCCc1ccccc1 [Phenformin] (partner 250 µM)
In short: as §1

Cell Line	relative viability ([1]; first compound 0.08 µM)	relative viability ([1]; first compound 0.253 µM)	relative viability ([1]; first compound 0.8 µM)	relative viability ([1]; first compound 2.53 µM)	relative viability ([1]; first compound 8 µM)	relative viability ([2]; first compound 0.01 µM)	relative viability ([2]; first compound 0.03162 µM)	relative viability ([2]; first compound 0.3162 µM)	relative viability ([2]; first compound 1 µM)	relative viability ([3]; first compound 0.01 µM)	relative viability ([3]; first compound 0.03162 µM)	relative viability ([3]; first compound 0.3162 µM)	relative viability ([3]; first compound 1 µM)	relative viability ([4]; first compound 0.08 µM)	relative viability ([4]; first compound 0.253 µM)	relative viability ([4]; first compound 0.8 µM)	relative viability ([4]; first compound 2.53 µM)	relative viability ([4]; first compound 8 µM)
HCC-366	0.152	0.0806	0.188	0.113	0.125	0.868	1.08	0.797	0.243	1.26	0.864	1.07	0.442	0.646	0.618	0.585	0.631	0.589
HCC-827	0.448	0.397	0.418	0.448	0.432	0.21	0.165	0.162	0.157	1.1	1.1	1.05	1.06	0.405	0.335	0.397	0.416	0.45
HOP-62	0.458	0.381	0.384	0.403	0.363	1.03	0.963	1.06	1.05	0.723	0.825	0.827	0.718	0.836	0.584	0.618	0.645	0.53
LC-2-ad	0.518	0.476	0.376	0.519	0.325	1.03	1.05	0.922	0.744	0.962	0.978	1.02	0.672	0.575	0.553	0.548	0.588	0.651
LCLC-97TM1	0.279	0.203	0.196	0.338	0.221	0.83	0.732	0.805	0.758	1.22	0.58	0.379	0.123	0.403	0.491	0.434	0.45	0.384
LOU-NH91	0.77	0.667	0.681	0.748	0.734	0.786	0.736	0.795	0.673	0.541	0.541	0.468	0.478	0.644	0.74	0.706	0.712	0.607
LU99A	0.289	0.267	0.272	0.323	0.273	1.02	1.07	0.898	0.41	1.15	1.07	1.14	0.988	0.989	0.796	0.869	0.721	0.631
LXF-289	0.234	0.159	0.179	0.19	0.228	0.929	0.902	0.953	0.912	0.951	1.05	0.957	1.01	0.54	0.511	0.509	0.485	0.507
NCI-H23	0.375	0.323	0.417	0.388	0.401	0.955	0.975	0.919	0.218	0.983	1.04	0.852	0.504	0.869	0.805	0.694	0.786	0.83
NCI-H322M	0.541	0.468	0.433	0.496	0.47	0.648	0.606	0.525	0.67	1.2	1.26	1.27	1.52	0.877	0.744	0.727	0.705	0.809
NCI-H460	0.627	0.381	0.559	0.543	0.4	1.71	0.877	0.0532	0.013	1.05	0.91	0.533	0.046	0.609	0.479	0.502	0.486	0.596
NCI-H520	0.428	0.454	0.439	0.369	0.42	0.922	0.638	0.587	0.283	0.745	0.628	0.413	0.323	0.493	0.496	0.585	0.321	0.727
NCI-H596	1.16	0.926	0.834	0.818	1.04	1.05	1.11	1.02	0.767	1.08	1.13	0.882	1.03	0.749	0.735	0.697	0.841	0.759
NCI-H647	0.49	0.279	0.308	0.231	0.267	1.02	1	0.937	0.291	1.04	0.909	1.21	0.564	0.668	0.486	0.449	0.534	0.525
NCI-H650	0.703	0.671	0.749	0.737	0.79	0.923	0.841	0.781	0.75	0.827	0.75	0.86	0.975	0.413	0.42	0.437	0.49	0.309
NCI-H661	0.333	0.347	0.341	0.369	0.343	0.348	0.383	0.385	0.322	0.743	0.755	0.786	0.567	0.286	0.291	0.269	0.279	0.312
NCI-H727	0.535	0.653	0.87	0.767	0.441	0.641	0.82	0.486	0.235	0.973	0.837	0.573	0.526	0.564	0.474	0.502	0.627	0.572
NCI-H838	0.238	0.214	0.272	0.285	0.266	1.05	0.815	0.124	0.0875	0.644	0.804	0.416	0.0826	0.497	0.558	0.557	0.483	0.551

Cell Line	relative viability ([1]; first compound 0.08 µM)	relative viability ([1]; first compound 0.253 µM)	relative viability ([1]; first compound 0.8 µM)	relative viability ([1]; first compound 2.53 µM)	relative viability ([1]; first compound 8 µM)	relative viability ([2]; first compound 0.01 µM)	relative viability ([2]; first compound 0.03162 µM)	relative viability ([2]; first compound 0.3162 µM)	relative viability ([2]; first compound 1 µM)	relative viability ([3]; first compound 0.01 µM)	relative viability ([3]; first compound 0.03162 µM)	relative viability ([3]; first compound 0.3162 µM)	relative viability ([3]; first compound 1 µM)	relative viability ([4]; first compound 0.08 µM)	relative viability ([4]; first compound 0.253 µM)	relative viability ([4]; first compound 0.8 µM)	relative viability ([4]; first compound 2.53 µM)	relative viability ([4]; first compound 8 µM)
NCI-H1355	0.629	0.608	0.627	0.595	0.641	0.959	0.911	1.12	0.989	1.26	1.16	1.31	1.29	0.484	0.432	0.44	0.481	0.434
NCI-H1437	0.421	0.392	0.407	0.408	0.287	0.77	0.71	0.514	0.22	0.448	0.514	0.494	0.307	0.257	0.242	0.251	0.303	0.317
NCI-H1650	0.4	0.347	0.45	0.407	0.231	0.781	0.782	0.555	0.21	0.19	0.203	0.183	0.194	0.427	0.444	0.42	0.418	0.322
NCI-H1651	0.742	0.727	0.657	0.764	0.562	0.862	0.784	0.607	0.534	0.912	0.917	0.971	0.974	0.386	0.331	0.385	0.329	0.337
NCI-H1666	0.621	0.628	0.609	0.657	0.434	0.657	0.579	0.327	0.347	0.782	0.794	0.733	0.333	0.536	0.579	0.586	0.596	0.566
NCI-H1734	0.263	0.249	0.261	0.289	0.238	0.893	1.03	0.928	0.427	0.782	0.884	0.842	0.442	0.398	0.381	0.356	0.326	0.35
NCI-H1755	0.608	0.539	0.555	0.615	0.577	1.02	1.03	0.948	1.11	0.927	1.09	0.976	0.969	0.597	0.59	0.605	0.63	0.651
NCI-H1915	0.471	0.445	0.463	0.436	0.437	1.02	0.987	0.863	0.8	1.07	1.06	0.546	0.944	0.368	0.381	0.352	0.357	0.37
NCI-H1975	0.772	0.753	0.754	0.736	0.686	0.861	0.817	0.447	0.158	0.352	0.301	0.433	0.202	0.424	0.434	0.413	0.386	0.39
NCI-H1993	0.576	0.576	0.581	0.56	0.548	0.808	0.787	0.632	0.699	0.987	0.979	1.07	0.683	0.492	0.488	0.537	0.528	0.527
NCI-H2009	0.766	0.756	0.741	0.842	0.562	1.09	0.825	0.66	0.277	1.08	0.908	0.96	0.704	0.498	0.455	0.504	0.498	0.441
NCI-H2023	0.398	0.311	0.411	0.347	0.36	0.911	0.755	0.504	0.177	1.12	0.985	0.855	0.503	0.393	0.394	0.432	0.376	0.379
NCI-H2085	0.928	0.742	0.784	0.886	0.813	0.845	0.776	0.713	0.488	1.22	1.04	0.995	0.964	0.795	0.743	0.687	0.752	0.755
NCI-H2087	0.237	0.258	0.238	0.237	0.267	1.2	1.11	0.998	0.185	0.82	1.05	0.811	0.51	0.469	0.447	0.452	0.455	0.459
NCI-H2126	0.911	0.824	0.843	0.938	0.792	0.804	0.752	0.683	0.857	1.17	1.14	1.13	1.17	0.564	0.535	0.514	0.557	0.559
NCI-H2228	0.264	0.269	0.279	0.233	0.295	1.02	1.11	0.669	0.481	0.977	0.801	0.66	0.8	0.441	0.341	0.296	0.303	0.423
NCI-H2347	0.59	0.57	0.52	0.741	0.573	1.04	1.06	0.989	0.935	0.916	0.873	0.952	1.27	0.356	0.318	0.438	0.558	0.303
